Measurements reported in US20090215895A1, “Therapeutic and carrier molecules” (PEPLIN BIOLIPIDS PTY LTD, priority 2004, published 2009).

Legend:
[1] = Delayed type hypersensitivity (DTH) to sheep erythrocytes; type: in vivo, BALB/c mice; conditions: 10 mg/kg intraperitoneally prior to antigen challenge
Experimental: FIG. 14 is a representation showing (A) effect of MP3 on in vivo inflammatory response measured as delayed type hypersensitivity (DTH) to sheep erythrocytes and LPS-induced influx of neutrophils and mononuclear cells in the peritoneal cavity in BALB/c mice. In the DTH experiments mice were injected with sheep erythrocytes subcutaneously, challenged with the antigen in the hind foot pad 6 days later and the amount of foot pad swelling measured 48 hr later. One hour prior to challenge mice were given 10 mg/kg body weight of β-oxa fatty acid in 7% w/v, DMSO as vehicle intraperitoneally. […] The data, expressed as % of control, are presented as mean±SEM of 10 and 5 mice for DTH and peritoneal inflammation, respectively. […] The data, expressed as % of control, are presented as mean±SEM of ten mice per group and is representative of two experimental runs. […]
Effect of MP3 (β-oxa-23:4n-6) on the in vivo inflammatory response was measured as a delayed type hypersensitivity (DTH) reaction and LPS-induced influx of neutrophils and mononuclear cells in the peritoneal cavity in BALB/c mice. For DTH experiments, mice were injected subcutaneously with 100 μl of 10% hematocrit sheep erythrocytes, challenged with the antigen (25 μl of 40%) in the hind foot pad 6 days later and the degree of foot pad swelling measured 48 hr later (Ferrante et al, Clin. & Exp. Immunol. 38:70-76, 1979). […]

[2] = test system: NFκB p65; experiment: TNF-stimulated nuclear translocation of NFκB in HUVEC; type: cell-based, human; conditions: 20 μmol/l
Experimental: FIG. 17 is a representation showing (A) the effect of MP3 (β-oxa 23:4n-6) and DHA on TNF-induced degradation of IκBα in HUVEC. Cells were pre-treated with the fatty acids (20 μmol/l) for 30 min and then stimulated with TNF (125 U/ml) for 10 min. After cell lysis the proteins were analyzed by Western blots using anti-IκBα antibodies. (B) The effects of β-oxa-23:4n-6 on TNF-induced activation of transcriptional factor, NFκB in HUVEC. Cells were pre-treated with β-oxa-23:4n-6 (20 μmol/l) for 30 min and then stimulated with TNF for 2 hr. After cell lysis, nuclear fractions were prepared, nuclear proteins separated by SDS PAGE (12% w/v gel), transferred to nitrocellulose and probed with an anti-NFκB p65 antibody (Santa Cruz). […] (C) The effect of β-oxa 23:4n-6 on TNF-stimulated activation of IKK. Cells were pre-treated with β-oxa 23:4n-6 (20 μmol/l) for 30 min and then stimulated with TNF for 5 min. After cell lysis IKK was immunoprecipitated with anti-IKKα antibody and kinase activity determined. […]
Proteins (50 μg) were separated by SDS PAGE (12% w/v gel), transferred to nitrocellulose and probed with an anti-NFκB p65 or anti-IκBα antibody (Santa Cruz Biotech, Santa Cruz, Calif.). Immunocomplexes were detected by enhanced chemiluminescence (Hii et al, 1998 supra).

Structure (SMILES): CCCCC/C=C\C/C=C\C/C=C\C/C=C\CCCCOCC(=O)O [MP3, β-oxa-23:4n-6]
- Delayed type hypersensitivity reaction (foot pad swelling) [1]: inhibited in ability to manifest a delayed type hypersensitivity reaction
- Reduction of TNF-stimulated nuclear accumulation of NFκB ([2]; 30 min, TNF 2 hr, mean±SEM, three experiments): 66±2%
- Translocation of NFκB to the nucleus ([2]; TNF): inhibition of translocation of NFκB to the nucleus
